The record followed here is PubChem BioAssay (NCI).

Structures are written as SMILES.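 Following 48 hours of exposure in 96-well plates, responses at five concentrations were used to interpolate endpoints linearly. Here, GI50 denotes the concentration required for 50% inhibition of growth. TGI: concentration producing complete growth inhibition.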

Some test systems named below: CCRF-CEM leukemia; HCC-2998 colon; HOP-62 NSCLC; HT29 colon; IGROV1 ovarian; K-562 leukemia; SNB-75 CNS; SW-620 colon.
Holding throughout (assay): DTP human tumour cell line panel, 48 h

In general, GI50 refers to the concentration that inhibits growth by half. By TGI is commonly meant the concentration giving total growth inhibition. Lower therefore signals greater sensitivity of the cells. As to `O=C1CC[C@H](N2C(=O)c3cccc4c(Cc5ccc(CN6CCOCC6)cc5)ccc2c34)C(=O)N1`, the GI50 in the experiment with CCRF-CEM leukemia is 55.9 µM; in the experiment with HCC-2998 colon, above 100 µM; in the experiment with HOP-62 NSCLC it was 52.3 µM; in the experiment on HT29 colon, 28.9 µM; with IGROV1 ovarian it was above 100 µM; in the experiment with K-562 leukemia, 10.2 µM. In addition, the GI50 is 2.56 µM in the experiment on SNB-75 CNS and above 100 µM with SW-620 colon. Also, the TGI with CCRF-CEM leukemia, in the experiment on HCC-2998 colon, with HOP-62 NSCLC, in the experiment on HT29 colon, with IGROV1 ovarian and in the experiment on K-562 leukemia was above 100 µM throughout. The concentration for total growth inhibition (TGI) in the experiment with SNB-75 CNS and with SW-620 colon was above 100 µM each time.
As to `NS(=O)(=O)OCC1OC(n2cnc3cncnc32)C(O)C1O` (stereo unspecified), the GI50 in the experiment on CCRF-CEM leukemia is 0.0389 µM; in the experiment with HCC-2998 colon, 0.0312 µM; in the experiment with HOP-62 NSCLC, below 0.01 µM; in the experiment on HT29 colon it was 0.0275 µM; in the experiment with IGROV1 ovarian, 0.0541 µM; in the experiment on K-562 leukemia it was 0.0333 µM. The GI50 was 0.0309 µM with SNB-75 CNS and 0.0167 µM in the experiment on SW-620 colon. Moreover, the TGI in the experiment on CCRF-CEM leukemia was above 21.1 µM; in the experiment with HCC-2998 colon, 0.097 µM; with HOP-62 NSCLC it was 0.0143 µM; with HT29 colon, 0.105 µM; in the experiment on IGROV1 ovarian, 0.304 µM; with K-562 leukemia it was 1.22 µM. The TGI is 0.4 µM with SNB-75 CNS and 0.155 µM with SW-620 colon.
Consider `CCN(CC)CCNc1ccc(C)c2sc3cc(Cl)ccc3c(=O)c12`, for which the GI50 in the experiment on CCRF-CEM leukemia is 1.44 µM; with HCC-2998 colon, 1.75 µM; in the experiment with HOP-62 NSCLC it was 1.44 µM; in the experiment on HT29 colon, 1.94 µM; in the experiment with IGROV1 ovarian it was 1.83 µM; with K-562 leukemia, 1.64 µM. The figures for the GI50 with SNB-75 CNS and with SW-620 colon were 1.71 µM and 1.86 µM, respectively. Further, the TGI with CCRF-CEM leukemia worked out at 3.36 µM; in the experiment on HCC-2998 colon, 3.58 µM; in the experiment with HOP-62 NSCLC, 2.9 µM; with HT29 colon, 3.48 µM; with IGROV1 ovarian, 4.05 µM; with K-562 leukemia it was 3.44 µM. The TGI with SNB-75 CNS stood at 4.98 µM; in the experiment with SW-620 colon, 3.6 µM.
As for `OC(c1cc(-c2cccc(Cl)c2)nc2ccccc12)C1CCCCN1` (stereo unspecified), the GI50 in the experiment with CCRF-CEM leukemia is 2.08 µM; in the experiment on HCC-2998 colon, 2.09 µM; in the experiment on HOP-62 NSCLC it was 1.78 µM; with HT29 colon, 1.7 µM; with IGROV1 ovarian it was 1.69 µM; in the experiment with K-562 leukemia it was 1.39 µM. Also, in the experiment on SNB-75 CNS, the GI50 is 1.38 µM. Besides, the TGI came out at 4.74 µM in the experiment with CCRF-CEM leukemia; 4.15 µM in the experiment on HCC-2998 colon; 3.32 µM with HOP-62 NSCLC; 3.42 µM in the experiment with HT29 colon; 3.21 µM in the experiment on IGROV1 ovarian; 4.46 µM in the experiment with K-562 leukemia. The TGI in the experiment with SNB-75 CNS amounted to 3.23 µM.
For the compound `Cc1cc(=O)[nH]c(N/N=C/c2cc(Br)ccc2O)n1`, the GI50 in the experiment on CCRF-CEM leukemia is 0.441 µM; in the experiment with HCC-2998 colon, 1.85 µM; with HOP-62 NSCLC, 1.41 µM; in the experiment on HT29 colon it was 13.3 µM; with IGROV1 ovarian it was 0.257 µM; in the experiment with K-562 leukemia, 0.605 µM. Also, the figures for the GI50 with SNB-75 CNS and in the experiment with SW-620 colon were 3.33 µM and 0.488 µM, respectively. Besides, the TGI in the experiment on CCRF-CEM leukemia is above 100 µM; with HCC-2998 colon, above 100 µM; in the experiment on HOP-62 NSCLC it was above 100 µM; in the experiment with HT29 colon it was above 100 µM; in the experiment on IGROV1 ovarian it was 0.706 µM; with K-562 leukemia it was above 100 µM. For the same compound, the TGI with SNB-75 CNS and with SW-620 colon was above 100 µM each time.
Consider `Cc1ccc(NC(=O)c2ccc(CN3CCN(C)CC3)cc2)cc1Nc1nccc(-c2cccnc2)n1`, for which the GI50 with CCRF-CEM leukemia is 18.4 µM; in the experiment on HCC-2998 colon, 21.3 µM; in the experiment with HOP-62 NSCLC it was 21.9 µM; in the experiment on HT29 colon, 4.88 µM; with IGROV1 ovarian, 20.5 µM; in the experiment with K-562 leukemia it was 0.0414 µM. Besides, the GI50 is 18.7 µM in the experiment with SNB-75 CNS and 24.3 µM in the experiment on SW-620 colon. In addition, the TGI amounted to 71.1 µM in the experiment with CCRF-CEM leukemia; 38.5 µM in the experiment with HCC-2998 colon; 47 µM in the experiment with HOP-62 NSCLC; 24.1 µM with HT29 colon; 45.7 µM with IGROV1 ovarian; 3.72 µM with K-562 leukemia. Moreover, the TGI in the experiment on SNB-75 CNS came to 34.2 µM; in the experiment on SW-620 colon, 54.7 µM.
Turning to `O=C(c1ccco1)c1nc2cc(C(F)(F)F)ccc2nc1C(F)(F)F`, the GI50 with HCC-2998 colon was above 100 µM; with HOP-62 NSCLC it was 71 µM; in the experiment on HT29 colon it was above 100 µM; in the experiment with IGROV1 ovarian, above 100 µM; in the experiment on K-562 leukemia it was above 100 µM; in the experiment with SNB-75 CNS, 18.9 µM. In the experiment with SW-620 colon, the GI50 is above 100 µM. In addition, the TGI in the experiment with HCC-2998 colon is above 100 µM; in the experiment on HOP-62 NSCLC, above 100 µM; in the experiment with HT29 colon, above 100 µM; in the experiment with IGROV1 ovarian, above 100 µM; in the experiment on K-562 leukemia, above 100 µM; with SNB-75 CNS, 62.7 µM. The compound further returned a TGI with SW-620 colon above 100 µM.
Take `O=C(COc1ccc(/C=C2\COc3ccccc3C2=O)cc1)Nc1nccs1`: the GI50 in the experiment with CCRF-CEM leukemia was 1.61 µM; in the experiment on HCC-2998 colon it was 0.828 µM; in the experiment on HOP-62 NSCLC, 16.8 µM; in the experiment with HT29 colon, 3.7 µM; with K-562 leukemia, 1.6 µM; in the experiment with SNB-75 CNS, 5.04 µM. Besides, in the experiment with SW-620 colon, the GI50 is 3.22 µM. Moreover, the TGI is 6.39 µM with CCRF-CEM leukemia; 3.26 µM in the experiment on HCC-2998 colon; 33.1 µM with HOP-62 NSCLC; 12.9 µM with HT29 colon; 4.64 µM in the experiment on K-562 leukemia; 22 µM in the experiment with SNB-75 CNS. The compound further had a TGI with SW-620 colon of 10.2 µM.
As for `CC[C@@H]1[C@@H](C)O[C@@](O)([C@@H](C)[C@H](O)[C@H](C)[C@H]2OC(=O)/C=C/C=C/[C@H](C)[C@@H]([C@@H](C)[C@@H](O)[C@H](C)[C@@]3(O)C[C@@H](O[C@H]4C[C@@H](O)[C@H](O)C(C)O4)[C@H](CC)[C@@H](C)O3)OC(=O)/C=C/C=C/[C@@H]2C)C[C@H]1O[C@@H]1C[C@@H](O)[C@H](O)C(C)O1` (stereo partly specified), the GI50 was 0.097 µM in the experiment on HCC-2998 colon; 0.073 µM in the experiment on HOP-62 NSCLC; 0.109 µM with HT29 colon; 0.0903 µM in the experiment on IGROV1 ovarian; 0.116 µM in the experiment on K-562 leukemia; 0.0495 µM in the experiment on SNB-75 CNS. The GI50 with SW-620 colon is 0.108 µM. The TGI was 0.262 µM in the experiment on HCC-2998 colon; 0.171 µM in the experiment on HOP-62 NSCLC; 0.389 µM with HT29 colon; 0.241 µM with IGROV1 ovarian; 0.378 µM in the experiment with K-562 leukemia; 0.149 µM with SNB-75 CNS. Besides, in the experiment on SW-620 colon, the TGI is 0.454 µM.
